These results are taken from ChEMBL document CHEMBL4028808, “Design and synthesis of selective CDK8/19 dual inhibitors: Discovery of 4,5-dihydrothieno[3',4':3,4]benzo[1,2-d]isothiazole derivatives” (Bioorg Med Chem, 2017).

Each structure is given as a SMILES string. Activity calls are given as the source filed them. No cut-off for these calls is given here.

A word on the inhibition: it is the change of the read-out against control, counted positive when it falls. Broadly, the IC50 is the point on the concentration scale where inhibition reaches its midpoint. In general, EC50 refers to the concentration at which the effect is half-maximal.

The test system of one data set is SET-2. The data set can be described thus: Antitumor activity against human SET2 cells implanted in […] assessed as reduction in tumor volume administered intraperitoneally relative to control. Type of data set: functional. Also on record: scale not given: the % may be the effect or the level left.
The target in data set [1] is T1, Cyclin-dependent kinase 8 (Homo sapiens, UniProt P49336). Kind of data set: Inhibition of CDK8 (unknown origin) at 1 uM by ADP-Glo assay. A general note: ADP-Glo first removes unused ATP, then detects ADP through luciferase.
T1 sequence (P49336 whole entry): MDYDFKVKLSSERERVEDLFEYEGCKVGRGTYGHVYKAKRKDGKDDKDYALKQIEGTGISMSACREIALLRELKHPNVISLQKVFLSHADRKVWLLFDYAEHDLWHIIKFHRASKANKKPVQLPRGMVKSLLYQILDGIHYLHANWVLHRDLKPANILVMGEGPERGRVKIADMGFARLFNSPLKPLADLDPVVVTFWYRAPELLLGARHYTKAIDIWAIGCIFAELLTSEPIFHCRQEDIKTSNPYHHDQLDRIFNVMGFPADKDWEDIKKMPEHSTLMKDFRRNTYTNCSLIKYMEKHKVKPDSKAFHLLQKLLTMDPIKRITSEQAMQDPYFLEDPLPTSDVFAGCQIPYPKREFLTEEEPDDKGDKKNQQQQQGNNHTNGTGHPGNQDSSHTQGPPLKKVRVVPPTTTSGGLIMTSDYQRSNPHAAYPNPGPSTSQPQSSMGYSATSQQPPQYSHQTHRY
Data set [2] has as its target T2, CDK8/Cyclin C (Homo sapiens, UniProt P49336). The data set can be described thus: Inhibition of full length recombinant human His-tagged CDK8/Cyclin C expressed in baculovirus expression system by LanthaScreen assay.
The target in data set [3] is T1, Cyclin-dependent kinase 8. Kind of data set: Inhibition of CDK8 induced beta-catenin transcriptional activity in human HCT116 cells by luciferase reporter gene assay. Format: cell-based.
In data set [4] the target is T1, Cyclin-dependent kinase 8. Kind of data set: Inhibition of CDK8 in human A549 cells by mass spectrometric method. Type of data set: cell-based.
In data set [5] the target is Vascular endothelial growth factor receptor 2 (Homo sapiens) (UniProt P35968). The data set can be described thus: Inhibition of VEGFR2 (unknown origin) at <1 uM using biotinylated poly[Glu:Tyr] (4:1) as substrate pretreated for 5 mins followed by substrate addition measured after 10 mins by Alphascreen assay. For orientation: Alpha assays give light when donor and acceptor beads are brought close together.

Data set [6] concerns the target Proto-oncogene tyrosine-protein kinase Src (Homo sapiens) (UniProt P12931). The data set can be described thus: Inhibition of SRC (unknown origin) at <1 uM using biotinylated poly[Glu:Tyr] (4:1) as substrate pretreated for 5 mins followed by substrate addition measured after 10 mins by Alphascreen assay.
In data set [7] the target is High affinity nerve growth factor receptor (Homo sapiens) (UniProt P04629). Kind of data set: Inhibition of TrkA (unknown origin) at <1 uM.
In data set [8] the target is Insulin receptor (Homo sapiens) (UniProt P06213). The data set can be described thus: Inhibition of IRK (unknown origin) at <1 uM using biotinylated poly[Glu:Tyr] (4:1) as substrate pretreated for 5 mins followed by substrate addition measured after 60 mins by Alphascreen assay.
The target in data set [9] is Hepatocyte growth factor receptor (Homo sapiens) (UniProt P08581). Kind of data set: Inhibition of cMET (unknown origin) at <1 uM.
Data set [10] addresses Mitogen-activated protein kinase 14 (Homo sapiens) (UniProt Q16539). Kind of data set: Inhibition of p38alpha (unknown origin) at <1 uM using MBP as substrate preincubated for 5 mins followed by substrate addition measured after 60 mins in presence of [gamma32P]ATP by scintillation counter method.
Data set [11] has as its target Mitogen-activated protein kinase 3 (Homo sapiens) (UniProt P27361). Kind of data set: Inhibition of ERK1 (unknown origin) at <1 uM using MBP as substrate preincubated for 5 mins followed by substrate addition measured after 60 mins in presence of [gamma33P]ATP by scintillation counter method.
Data set [12] has as its target Focal adhesion kinase 1 (Homo sapiens) (UniProt Q05397). Kind of data set: Inhibition of FAK (unknown origin) at <1 uM using biotinylated poly[Glu:Tyr] (4:1) as substrate pretreated for 5 mins followed by substrate addition measured after 20 mins by Alphascreen assay.
The target in data set [13] is T3, Cyclin-dependent kinase 9 (Homo sapiens, UniProt P50750). The data set can be described thus: Inhibition of CDK9 (unknown origin).
T3 sequence (P50750 whole entry): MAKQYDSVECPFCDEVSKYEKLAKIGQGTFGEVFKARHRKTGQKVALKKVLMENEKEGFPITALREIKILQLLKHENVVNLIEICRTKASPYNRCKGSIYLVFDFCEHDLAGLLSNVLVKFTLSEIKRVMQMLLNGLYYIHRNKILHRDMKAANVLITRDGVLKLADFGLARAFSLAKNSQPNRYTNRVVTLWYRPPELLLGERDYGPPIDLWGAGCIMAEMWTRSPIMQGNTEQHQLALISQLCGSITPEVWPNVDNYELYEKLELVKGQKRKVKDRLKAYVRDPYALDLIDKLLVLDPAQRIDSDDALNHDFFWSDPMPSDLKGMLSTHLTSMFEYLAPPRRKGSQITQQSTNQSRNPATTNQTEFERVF
The target of data set [14] is CDK8/Cyclin C (Homo sapiens) (UniProt P49336+P24863). As to conditions: 1 uM.
Description: Inhibition of kinase tracer-236 binding to GST-tagged CDK8/CyclinC (unknown origin) at 1 uM after 60 mins by TR-FRET assay relative to control
Data set [15] can be described thus: Intrinsic clearance in human liver microsomes at 1 umol/l after 15 to 30 mins in presence of NADPH by LC-MS/MS analysis. Type of data set: ADME, microsome. As to conditions: read-out: CLH. (Liver microsomes are a subcellular fraction often used to study metabolism.)
For data set [16], the target named is Rho-associated protein kinase 1 (Homo sapiens) (UniProt Q13464). The data set can be described thus: Inhibition of ROCK1 (unknown origin) at 1 uM using long S6 peptide as substrate pretreated for 5 mins followed by substrate addition measured after 10 mins in presence of [gamma33P]ATP by scintillation counting method relative to control.
The target in data set [17] is T2, CDK8/Cyclin C. The data set can be described thus: Inhibition of kinase tracer-236 binding to GST-tagged CDK8/CyclinC (unknown origin) after 60 mins by TR-FRET assay. Type of data set: protein-complex assay.
The target in data set [18] is Serine/threonine-protein kinase PLK1 (Homo sapiens) (UniProt P53350). Kind of data set: Inhibition of PLK1 (unknown origin) at 1 uM using alpha-casein as substrate preincubated for 5 mins followed by substrate addition measured after 60 mins in presence of [gamma33P]ATP by scintillation counter method relative to control.
Data set [19] addresses CDK2/Cyclin A2 (Homo sapiens) (UniProt P24941+P20248). The data set can be described thus: Inhibition of CDK2/cyclin A (unknown origin) at 1 uM using histone H1 as substrate preincubated for 5 mins followed by substrate addition measured after 20 mins in presence of [gamma33P]ATP by scintillation counter method relative to control. Type of data set: protein-complex assay.

The target in data set [20] is Tyrosine-protein kinase JAK1 (Homo sapiens) (UniProt P23458). Kind of data set: Inhibition of JAK1 (unknown origin) at <1 uM using biotinylated poly[Glu:Tyr] (4:1) as substrate pretreated for 5 mins followed by substrate addition measured after 10 mins by Alphascreen assay.
Data set [21] addresses Aurora kinase B (Homo sapiens) (UniProt Q96GD4). The data set can be described thus: Inhibition of Aurora B (unknown origin) at <1 uM using aurora peptide as substrate preincubated for 5 mins followed by substrate addition measured after 60 mins in presence of [gamma33P]ATP by scintillation counter method.
The species named for another data set is Homo sapiens. Kind of data set: Inhibition of PKA (unknown origin) at 1 uM using PKA peptide as substrate preincubated for 5 mins followed by substrate addition measured after 10 mins in presence of [gamma33P]ATP by scintillation counter method relative to control.
For data set [22], the target named is Glycogen synthase kinase-3 beta (Homo sapiens) (UniProt P49841). The data set can be described thus: Inhibition of GSK3beta (unknown origin) at 1 uM using GSK3 substrate peptide preincubated for 5 mins followed by substrate addition measured after 30 mins in presence of [gamma33P]ATP by scintillation counter method relative to control.
The target in data set [23] is Serine/threonine-protein kinase Chk1 (Homo sapiens) (UniProt O14757). The data set can be described thus: Inhibition of CHK1 (unknown origin) at <1 uM using CHKtide as substrate preincubated for 5 mins followed by substrate addition measured after 10 mins in presence of [gamma33P]ATP by scintillation counter method.
The target in data set [24] is Phosphatidylinositol 4,5-bisphosphate 3-kinase catalytic subunit alpha isoform (Homo sapiens) (UniProt P42336). Kind of data set: Inhibition of PI3Kalpha (unknown origin) at <1 uM.
Sequence of Phosphatidylinositol 4,5-bisphosphate 3-kinase catalytic subunit alpha isoform (Homo sapiens) (P42336 whole entry, canonical isoform): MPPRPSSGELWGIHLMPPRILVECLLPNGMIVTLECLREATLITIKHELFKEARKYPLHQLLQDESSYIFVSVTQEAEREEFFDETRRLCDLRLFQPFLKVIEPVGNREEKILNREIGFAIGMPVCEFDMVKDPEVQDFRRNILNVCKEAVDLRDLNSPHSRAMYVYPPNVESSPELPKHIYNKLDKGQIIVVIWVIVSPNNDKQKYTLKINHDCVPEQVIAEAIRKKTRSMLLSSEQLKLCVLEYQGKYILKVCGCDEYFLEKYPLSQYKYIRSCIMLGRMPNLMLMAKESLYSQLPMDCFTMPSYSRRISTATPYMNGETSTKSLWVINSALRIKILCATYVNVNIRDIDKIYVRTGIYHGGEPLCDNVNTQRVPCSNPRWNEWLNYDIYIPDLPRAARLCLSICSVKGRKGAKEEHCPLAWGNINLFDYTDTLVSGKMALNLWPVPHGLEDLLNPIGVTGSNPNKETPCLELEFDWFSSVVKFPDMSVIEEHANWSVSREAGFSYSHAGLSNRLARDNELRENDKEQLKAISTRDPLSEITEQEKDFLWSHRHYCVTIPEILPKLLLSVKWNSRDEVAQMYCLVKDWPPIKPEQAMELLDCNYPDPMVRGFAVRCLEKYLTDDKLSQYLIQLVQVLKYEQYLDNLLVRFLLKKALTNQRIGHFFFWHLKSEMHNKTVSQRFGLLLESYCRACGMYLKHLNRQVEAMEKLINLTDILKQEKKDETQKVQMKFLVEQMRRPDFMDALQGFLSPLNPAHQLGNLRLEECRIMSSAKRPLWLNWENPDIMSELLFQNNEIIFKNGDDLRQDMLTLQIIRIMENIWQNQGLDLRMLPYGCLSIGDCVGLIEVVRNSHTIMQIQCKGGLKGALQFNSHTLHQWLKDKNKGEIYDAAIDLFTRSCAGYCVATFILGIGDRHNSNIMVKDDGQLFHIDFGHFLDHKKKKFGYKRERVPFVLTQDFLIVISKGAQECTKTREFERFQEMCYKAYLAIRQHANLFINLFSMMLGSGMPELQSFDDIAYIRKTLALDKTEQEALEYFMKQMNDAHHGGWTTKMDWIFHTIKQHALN
For data set [25], the target named is RAC-alpha serine/threonine-protein kinase (Homo sapiens) (UniProt P31749). The data set can be described thus: Inhibition of Akt1 (unknown origin) at <1 uM using AKT1 substrate pretreated for 5 mins followed by substrate addition after 20 mins in presence of [gamma33P]ATP by scintillation counter method.
Data set [26] concerns the target Protein kinase C theta type (Homo sapiens) (UniProt Q04759). The data set can be described thus: Inhibition of PKCtheta (unknown origin) at 1 uM using MBP as substrate preincubated for 5 mins followed by substrate addition measured after 60 mins in presence of [gamma33P]ATP by scintillation counter method relative to control.
Data set [27] has as its target MAP kinase-activated protein kinase 2 (Homo sapiens) (UniProt P49137). Kind of data set: Inhibition of MAPKAPK2 (unknown origin) at <1 uM using KKLNRTLSVA-NH2 as substrate preincubated for 5 mins followed by substrate addition measured after 10 mins in presence of [gamma33P]ATP by scintillation counter method.
For data set [28], the target named is T1, Cyclin-dependent kinase 8. The data set can be described thus: Inhibition of CDK8 in human SW480 cells assessed as decrease in STAT1 phosphorylation at Ser727 after 2 hrs by Western blot method.
In data set [29] the target is Mitogen-activated protein kinase kinase kinase 5 (Homo sapiens) (UniProt Q99683). Kind of data set: Inhibition of ASK1 (unknown origin) at 1 uM using MBP as substrate preincubated for 5 mins followed by substrate addition measured after 60 mins in presence of [gamma33P]ATP by scintillation counter method relative to control.
Data set [30] deals with CDC7/DBF4 (Cell division cycle 7-related protein kinase/Activator of S phase kinase) (Homo sapiens) (UniProt Q9UBU7+O00311). Kind of data set: Inhibition of CDC7/Dbf4 (unknown origin) at 1 uM using His-tagged MCM2 as substrate preincubated for 5 mins followed by substrate addition measured after 60 mins in presence of [gamma33P]ATP by scintillation counter method relative to control. Format: protein-complex assay.

Data set [31] concerns the target Dual specificity mitogen-activated protein kinase kinase 1 (Homo sapiens) (UniProt Q02750). Kind of data set: Inhibition of MEK1 (unknown origin) at <1 uM using GST-ERK1 as substrate preincubated for 5 mins followed by substrate addition measured after 20 mins in presence of [gamma33P]ATP by scintillation counter method.
The target in data set [32] is Casein kinase I isoform delta (Homo sapiens) (UniProt P48730). The data set can be described thus: Inhibition of CK1delta (unknown origin) at 1 uM using CK1tide as substrate preincubated for 5 mins followed by substrate addition measured after 20 mins in presence of [gamma33P]ATP by scintillation counter method relative to control.
For data set [33], the target named is Cyclin-C/Cyclin-dependent kinase 19 (Homo sapiens) (UniProt Q9BWU1+P24863). As to conditions: 1 uM.
Description: Inhibition of kinase tracer-236 binding to GST-tagged CDK19/CyclinC (unknown origin) at 1 uM after 60 mins by TR-FRET assay relative to control
For data set [34], the target named is Ephrin type-A receptor 5 (Homo sapiens) (UniProt P54756). Kind of data set: Inhibition of EphA5 (unknown origin) at <1 uM using biotinylated poly[Glu:Tyr] (4:1) as substrate pretreated for 5 mins followed by substrate addition measured after 10 mins by Alphascreen assay.
Data set [35] deals with Cyclin-C/Cyclin-dependent kinase 19 (Homo sapiens, UniProt Q9BWU1). Kind of data set: Inhibition of kinase tracer-236 binding to GST-tagged CDK19/CyclinC (unknown origin) after 60 mins by TR-FRET assay. Type of data set: protein-complex assay.
Sequence of Cyclin-C/Cyclin-dependent kinase 19 (Q9BWU1 whole entry): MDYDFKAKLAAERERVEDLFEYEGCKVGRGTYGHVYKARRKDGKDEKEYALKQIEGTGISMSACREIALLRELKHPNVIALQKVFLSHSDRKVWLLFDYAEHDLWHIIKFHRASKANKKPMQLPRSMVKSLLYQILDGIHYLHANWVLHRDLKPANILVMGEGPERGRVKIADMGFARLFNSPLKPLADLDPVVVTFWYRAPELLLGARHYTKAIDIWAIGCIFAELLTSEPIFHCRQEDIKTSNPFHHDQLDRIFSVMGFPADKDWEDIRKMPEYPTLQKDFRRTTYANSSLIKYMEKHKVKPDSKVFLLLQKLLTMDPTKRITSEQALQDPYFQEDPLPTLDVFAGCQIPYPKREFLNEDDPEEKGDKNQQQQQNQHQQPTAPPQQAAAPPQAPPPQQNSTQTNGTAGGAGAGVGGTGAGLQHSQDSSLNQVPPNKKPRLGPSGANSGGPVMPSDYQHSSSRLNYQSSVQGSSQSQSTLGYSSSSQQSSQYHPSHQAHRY
Sequence of Cyclin-C/Cyclin-dependent kinase 19 (P24863 whole entry, further chain): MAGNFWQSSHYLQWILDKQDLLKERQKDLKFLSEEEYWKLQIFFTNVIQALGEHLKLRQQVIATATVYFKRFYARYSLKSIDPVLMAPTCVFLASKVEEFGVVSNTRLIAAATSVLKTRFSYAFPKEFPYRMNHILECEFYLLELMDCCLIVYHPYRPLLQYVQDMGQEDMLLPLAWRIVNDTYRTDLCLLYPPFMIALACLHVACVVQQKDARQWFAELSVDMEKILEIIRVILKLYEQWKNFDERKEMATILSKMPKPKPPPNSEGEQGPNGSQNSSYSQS
The target in data set [36] is T3, Cyclin-dependent kinase 9. Kind of data set: Inhibition of CDK9 (unknown origin) at 1 uM relative to control.

T2 sequence (P49336 whole entry): as the sequence (P49336 whole entry) above
T2 sequence (P24863 whole entry, further chain): as the sequence (P24863 whole entry, further chain) above
Sequence of Proto-oncogene tyrosine-protein kinase Src (Homo sapiens) (P12931 2-536 limits assumed): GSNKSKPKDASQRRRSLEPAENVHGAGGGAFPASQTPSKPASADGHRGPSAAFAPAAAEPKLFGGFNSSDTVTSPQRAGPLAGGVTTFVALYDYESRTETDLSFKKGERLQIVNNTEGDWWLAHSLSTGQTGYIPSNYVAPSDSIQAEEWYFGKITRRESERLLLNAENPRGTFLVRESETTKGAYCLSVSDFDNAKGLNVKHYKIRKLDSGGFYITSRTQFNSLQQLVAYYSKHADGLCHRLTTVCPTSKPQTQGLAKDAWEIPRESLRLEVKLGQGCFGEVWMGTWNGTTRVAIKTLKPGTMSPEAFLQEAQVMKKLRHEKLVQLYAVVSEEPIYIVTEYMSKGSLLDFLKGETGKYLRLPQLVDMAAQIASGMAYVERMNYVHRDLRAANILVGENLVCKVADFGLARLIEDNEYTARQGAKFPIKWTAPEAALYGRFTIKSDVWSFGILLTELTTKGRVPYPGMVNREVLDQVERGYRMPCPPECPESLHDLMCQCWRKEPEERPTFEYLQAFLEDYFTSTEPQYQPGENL
Sequence of Focal adhesion kinase 1 (Homo sapiens) (Q05397 2-1052 limits assumed): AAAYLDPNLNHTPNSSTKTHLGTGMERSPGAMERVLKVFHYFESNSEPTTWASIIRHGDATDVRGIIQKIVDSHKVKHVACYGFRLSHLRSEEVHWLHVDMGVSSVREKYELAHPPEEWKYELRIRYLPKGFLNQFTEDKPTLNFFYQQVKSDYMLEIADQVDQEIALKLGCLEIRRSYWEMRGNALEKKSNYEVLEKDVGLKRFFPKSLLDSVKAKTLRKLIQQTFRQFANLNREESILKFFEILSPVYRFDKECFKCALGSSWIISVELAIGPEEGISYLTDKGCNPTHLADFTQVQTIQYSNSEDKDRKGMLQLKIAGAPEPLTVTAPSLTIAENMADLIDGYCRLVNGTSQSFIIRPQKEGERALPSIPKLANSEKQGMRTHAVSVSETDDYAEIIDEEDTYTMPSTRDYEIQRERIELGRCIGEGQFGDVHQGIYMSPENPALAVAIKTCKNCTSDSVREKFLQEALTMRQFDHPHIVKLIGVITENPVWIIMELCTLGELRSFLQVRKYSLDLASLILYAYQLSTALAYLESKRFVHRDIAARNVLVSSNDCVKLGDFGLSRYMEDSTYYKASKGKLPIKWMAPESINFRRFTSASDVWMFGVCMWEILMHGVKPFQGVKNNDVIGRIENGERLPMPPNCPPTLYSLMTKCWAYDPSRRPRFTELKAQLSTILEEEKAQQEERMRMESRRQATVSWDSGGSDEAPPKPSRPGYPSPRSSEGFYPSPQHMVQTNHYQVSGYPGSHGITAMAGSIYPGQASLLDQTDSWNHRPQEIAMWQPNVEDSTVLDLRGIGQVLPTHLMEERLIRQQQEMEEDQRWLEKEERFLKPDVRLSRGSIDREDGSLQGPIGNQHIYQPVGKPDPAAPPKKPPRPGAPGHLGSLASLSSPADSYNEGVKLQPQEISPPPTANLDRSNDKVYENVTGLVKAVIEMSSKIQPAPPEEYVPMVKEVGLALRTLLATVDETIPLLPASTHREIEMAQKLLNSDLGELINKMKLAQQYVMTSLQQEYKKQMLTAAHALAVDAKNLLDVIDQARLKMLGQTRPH
Sequence of Aurora kinase B (Homo sapiens) (Q96GD4 whole entry): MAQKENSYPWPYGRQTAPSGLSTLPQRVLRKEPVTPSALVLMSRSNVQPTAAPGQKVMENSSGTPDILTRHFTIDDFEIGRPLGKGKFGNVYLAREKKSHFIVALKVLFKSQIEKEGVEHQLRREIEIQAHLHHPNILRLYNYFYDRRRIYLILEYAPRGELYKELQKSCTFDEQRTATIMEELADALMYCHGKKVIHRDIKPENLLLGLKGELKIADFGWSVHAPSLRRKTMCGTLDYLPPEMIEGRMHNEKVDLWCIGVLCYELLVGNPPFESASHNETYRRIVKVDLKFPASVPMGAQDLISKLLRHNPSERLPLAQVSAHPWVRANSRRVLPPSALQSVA

Regarding `CN(C)[C@H]1C[C@@]23CC[C@@]4(O2)C(=CC[C@]2(C)[C@@H](c5ccc6ccncc6c5)CC[C@H]24)C=C3[C@@H](O)[C@@H]1O`, the Activity with SET-2 is 71%.
Consider `Brc1c(Br)c2c3c(nc(N4CCNCC4)n3CCC2)c1Br`, for which, in [1], the inhibition stood at 96%.
As to `c1cc2cc(c1)-c1cnc3ccc(nn13)NCCCCCO2`, the IC50 on CDK8/Cyclin C [2] is 31 nM. Further, the response in data set [3] was half-maximal at 337 nM (EC50).
Regarding `NC(=O)C[C@H]1CCc2sc3ncnc(O[C@H]4CC[C@H](N5CCOCC5)CC4)c3c21`, 22 nM corresponded to half-maximal inhibition in data set [4] (IC50).
Take `CSc1sc(C(N)=O)c2c1-c1sncc1CC2`: the inhibition entry in [5], in data set [6], in data set [7], in [8], in data set [9] and in data set [10] was “inactive” in each case. Moreover, the inhibition result in data set [11], in data set [12], in data set [20], in [21], in [23] and in data set [24] was “inactive” each time. The inhibition result in data set [25], in data set [27], in data set [31] and in data set [34] was “inactive” throughout. Besides, the values for the IC50 (in data set [13]; on CDK8/Cyclin C [17]; in data set [35]) were 4 nM, 0.65 nM and 1.3 to 1.7 nM, respectively. Besides, the inhibition is 99% in [14]; 81% in [16]; 62% in data set [18]; 95% in [19]; 62% in the data set listed under Homo sapiens; 64% in [22]. Further, the inhibition in data set [26] came out at 77%; in data set [29], 60%; in data set [30], 91%; in data set [32], 94%; in [33], 97%; in [36], 105%. Moreover, the microsomal CLint at 1 µM in data set [15] came to 137 µL/min/mg. Besides, in data set [28], the EC50 stood at 8.9 nM.
